The source made the active and inactive calls. The calls are words filed in the database; no cut-off is given here.
How the values were obtained:
[1] = system: HONE1; assay: Cytotoxicity against human HONE1 cells; assay type: functional, cell-based
[2] = system: NUGC; assay: Cytotoxicity against human NUGC cells; assay type: functional, cell-based

Structure (SMILES)	Activity [1]	Activity [2]
O=C1C[C@@H]2[C@@H](O)CCCN2[C@H](n2cnc3ccccc3c2=O)C1	inactive	inactive
O=C(C[C@@H]1NCCC[C@H]1O)Cn1cnc2ccccc2c1=O	inactive	inactive
CC1(C)[C@@H](n2cnc3ccccc3c2=O)C(=O)C[C@@H]2[C@@H](O)CCCN21	inactive	inactive
